According to patent US11375716B2, “Acetyl-CoA carboxylase modulators” (Monsanto Technology LLC, priority 2013, dated 2022):
Like-named read-outs stand apart in the source and are kept apart here.

Experiments:
[1] = target: Ustilago maydis acetyl CoA carboxylase (ACCase) (Ustilago maydis, UniProt A0A0D1DYD5); assay: ACCase enzymatic assay (PK/LDH-coupled, NADH OD340); type: biochemical
Experimental: Ustilago maydis acetyl CoA carboxylase (ACCase) was cloned, expressed, and purified as described (Weatherly et al, Biochem. J., 2004) and the test compounds were tested in a 96-well plate format. Primary in vitro screening consisted of obtaining dose response data at 100, 33, 10, and 1 μM inhibitor. Actives in the primary screen were re-tested to establish IC50 values.
Direct detection of the conversion of acetyl CoA to malonyl CoA by ACCase was not feasible, but during this process ATP is converted to ADP which allowed for detection through a standard reaction coupling with ADP recycling to the oxidation of NADH. Thus, ACCase activity was measured via kinetic OD340 measurements of the conversion of NADH to NAD in a coupled reaction involving the conversion of phosphoenolpyruvate (PEP) to lactate.
The complete 200 ul reaction mixture contained 52.5 mM HEPES (pH8), 2.625 mM MgCl2, 1 mM ATP, 0.525 mM DTT, 11 mM NaHCO3, 1% DMSO with or without inhibitor, lx pyruvate kinase/lactate dehydrogenase (PK/LDH), 0.3 mM NADH, 0.5 mM PEP, and 5 μg ACCase. The reactions were incubated at 30° C. for 10 minutes and then initiated by the addition of 0.33 mM acetyl CoA. The initiated reactions were read immediately via plate reader at OD340 and kinetic readings were acquired every 20 s for 15 minutes while keeping the temperature at 30° C.
A slope of the kinetic curve was determined by using the 2 to 7 minute data which was then calculated as percent inhibition relative to the no inhibitor control.
The primary screens were conducted in duplicate and the IC50's conducted in triplicate. Averages were reported along with standard deviation calculation to generate error bars.
Each plate contained its own controls and consisted of a DMSO only control, 5-fold titration series of soraphen from 2 μM to 3.2 nM, and an ADP coupled reaction control.
In order to effectively screen out non-specific modulators of pyruvate kinase and lactate dehydrogenase (the coupled portion of the reaction), a PK/LDH inhibition test was developed. The complete 200 μl reaction mixture contained 52.5 mM HEPES (pH8), 2.625 mM MgCl2, 0.525 mM DTT, 11 mM NaHCO3, 1% DMSO with or without inhibitor, 1× pyruvate kinase/lactate dehydrogenase (PK/LDH), 0.3 mM NADH, and 0.5 mM PEP. The reactions were incubated at 30° C. for 10 minutes and then initiated by the addition of 66 μM ADP. The initiated reactions were read immediately via plate reader at OD340 and kinetic readings were acquired every 20 s for 15 minutes while remaining at 30° C.
A slope of the kinetic curve was determined by using the 2 to 7 minute data which was then calculated as percent inhibition relative to the no inhibitor control. Those compounds which had no significant PK/LDH inhibition at or above the IC50 in the ACCase assay, were considered to be valid modulators of only ACCase.

Botrytis cinerea = assay: Fungal growth inhibition assay, B. cinerea; type: cell-based
Excerpt: Spores were isolated from previously sub-cultured plates of Botrytis cinerea, Phytophthora capsici, Fusarium moniliforme, Fusarium viguliforme, Collectotrichum graminicola, and Diplodia maydis. All spores were filtered and collected in a sterile glass bowl to isolate the spores from the mycelia. The isolation and sub-culture plate condition for each pathogen is described below.
Spore isolation for B. cinerea: A 2-3 week old V8 (17%)+CaCO3 (3 g/L)+20 g agar plate was removed from room temperature and the mycelia were treated with 5-10 ml of filter sterilized Triton X 100 (0.05%). The mycelia were scraped to re-suspend the spores. The spores were then collected in a sterile filter bowl containing a fluted piece of filter paper and poured into a conical tube.
After spore isolation, pathogen spores were counted on a hemocytometer to calculate the spores/ml. In 17% V8 liquid media containing 3 g/L CaCO3, isolated spores were diluted to individual concentrations based on the growth curves at 48 hours of each pathogen. […]
In a 96-well plate the spore solution, chemistries, and controls were combined to make the final solution concentrations mentioned above. Upon addition of the chemistry, an OD600 reading was done to assess chemical precipitation. […] Plate readings were repeated at 24 and 48 hrs. […]

[2] = Table 1A, read-out: ACCase Inhibitory Activity IC50
[3] = Table 1B, racemates and single enantiomers, read-out: ACCase Inhibitory Activity of Racemic Mixtures and Single Enantiomers IC50

Ustilago maydis acetyl CoA carboxylase (ACCase), sequence (A0A0D1DYD5 1-2185): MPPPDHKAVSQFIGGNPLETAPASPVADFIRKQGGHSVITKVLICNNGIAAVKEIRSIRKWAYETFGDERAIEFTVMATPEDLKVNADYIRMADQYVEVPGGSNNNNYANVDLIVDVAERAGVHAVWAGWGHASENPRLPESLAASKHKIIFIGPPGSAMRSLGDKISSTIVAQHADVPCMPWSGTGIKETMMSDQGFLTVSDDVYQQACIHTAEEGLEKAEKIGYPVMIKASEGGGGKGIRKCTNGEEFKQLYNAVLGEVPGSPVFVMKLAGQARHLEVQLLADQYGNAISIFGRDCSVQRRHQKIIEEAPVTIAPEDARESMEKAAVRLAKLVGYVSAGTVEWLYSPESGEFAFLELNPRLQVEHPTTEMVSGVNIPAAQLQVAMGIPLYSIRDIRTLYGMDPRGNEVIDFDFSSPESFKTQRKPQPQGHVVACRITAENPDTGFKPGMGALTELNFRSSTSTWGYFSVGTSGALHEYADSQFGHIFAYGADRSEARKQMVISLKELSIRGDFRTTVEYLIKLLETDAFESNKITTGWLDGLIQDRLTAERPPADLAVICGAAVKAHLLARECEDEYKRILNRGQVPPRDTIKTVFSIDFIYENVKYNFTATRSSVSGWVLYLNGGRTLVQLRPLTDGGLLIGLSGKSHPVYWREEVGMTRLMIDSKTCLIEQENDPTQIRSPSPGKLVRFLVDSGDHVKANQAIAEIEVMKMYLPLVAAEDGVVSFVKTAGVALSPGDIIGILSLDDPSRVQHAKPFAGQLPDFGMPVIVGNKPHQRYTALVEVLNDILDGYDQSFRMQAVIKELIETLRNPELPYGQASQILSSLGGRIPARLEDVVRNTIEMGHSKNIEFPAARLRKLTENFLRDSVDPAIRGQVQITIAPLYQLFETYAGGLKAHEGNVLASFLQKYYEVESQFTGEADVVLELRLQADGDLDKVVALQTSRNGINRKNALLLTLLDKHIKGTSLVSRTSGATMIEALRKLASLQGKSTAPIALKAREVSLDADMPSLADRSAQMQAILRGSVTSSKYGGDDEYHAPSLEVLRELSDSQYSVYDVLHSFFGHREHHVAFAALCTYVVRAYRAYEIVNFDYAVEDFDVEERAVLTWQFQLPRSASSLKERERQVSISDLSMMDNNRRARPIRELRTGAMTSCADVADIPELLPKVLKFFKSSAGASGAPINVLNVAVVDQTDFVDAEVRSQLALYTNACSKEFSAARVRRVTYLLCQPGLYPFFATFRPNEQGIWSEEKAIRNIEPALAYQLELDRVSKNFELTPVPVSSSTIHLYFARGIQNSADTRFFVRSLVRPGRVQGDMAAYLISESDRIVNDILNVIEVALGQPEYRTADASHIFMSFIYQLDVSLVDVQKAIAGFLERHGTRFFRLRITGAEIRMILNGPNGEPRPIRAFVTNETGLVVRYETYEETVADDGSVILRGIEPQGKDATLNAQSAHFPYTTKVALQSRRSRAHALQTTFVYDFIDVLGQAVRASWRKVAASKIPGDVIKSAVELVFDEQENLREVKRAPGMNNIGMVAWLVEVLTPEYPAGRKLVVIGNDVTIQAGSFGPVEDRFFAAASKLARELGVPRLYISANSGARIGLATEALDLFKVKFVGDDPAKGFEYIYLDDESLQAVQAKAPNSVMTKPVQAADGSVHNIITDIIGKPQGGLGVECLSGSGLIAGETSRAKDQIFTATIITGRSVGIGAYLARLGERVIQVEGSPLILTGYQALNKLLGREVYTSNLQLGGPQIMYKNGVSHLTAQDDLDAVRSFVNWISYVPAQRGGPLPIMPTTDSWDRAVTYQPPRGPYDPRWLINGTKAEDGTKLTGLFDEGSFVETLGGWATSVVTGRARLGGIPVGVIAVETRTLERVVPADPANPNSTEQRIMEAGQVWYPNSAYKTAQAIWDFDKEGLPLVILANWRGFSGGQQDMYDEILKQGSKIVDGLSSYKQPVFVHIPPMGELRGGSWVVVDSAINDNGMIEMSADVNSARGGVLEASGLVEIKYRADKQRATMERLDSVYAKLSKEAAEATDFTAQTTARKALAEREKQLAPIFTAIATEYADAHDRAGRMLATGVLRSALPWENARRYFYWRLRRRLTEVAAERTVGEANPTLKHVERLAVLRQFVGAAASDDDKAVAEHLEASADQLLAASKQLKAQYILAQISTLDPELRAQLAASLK

Compound	IC50 [1, 2] [nM]	B. cinerea % growth inhibition at 48 hours (Botrytis cinerea; 2 ppm) [%]	B. cinerea % growth inhibition at 48 hours (Botrytis cinerea; 10 ppm) [%]	IC50 [1, 3] [nM]
2-((3-cyano-4-(4-methoxyphenyl)-6-(1-oxidothiophen-2-yl)pyridin-2-yl)oxy)-2-phenylacetic acid [Formula Ia-xxviii]	196	14	27	
N#Cc1c(-c2cccs2)cc(-c2cccs2)nc1SC(C(=O)O)c1ccccc1 (racemic) [Formula Ia-iii, 2-((3-cyano-4,6-di(thiophen-2-yl)pyridin-2-yl)thio)-2-phenylacetic acid]	616			439
COc1ccc(-c2cc(-c3cccs3)nc(SC(C(=O)O)c3ccccc3)c2C#N)cc1 (racemic) [Formula Ia-xiv, 2-((3-cyano-4-(4-methoxyphenyl)-6-(thiophen-2-yl)pyridin-2-yl)thio)-2-phenylacetic acid]	60			
N#Cc1c(C(F)(F)F)cc(-c2cccs2)nc1S[C@H](C(=O)O)c1ccccc1 (single isomer, unassigned) [Formula Ia-ii-e2, 2-((3-cyano-6-(thiophen-2-yl)-4-(trifluoromethyl)pyridin-2-yl)thio)-2-phenylacetic acid]				1210
